Paper PMC6646438 (Natural Products and Bioprospecting, 2019)

Experiments:
[1] = biological target: T1, melatonin MT2 receptor (Homo sapiens, UniProt P49286); assay: Fluo-8 calcium flux agonist assay in HEK293 cells stably expressing human MT2, dose-response; type: cell-based
T1 construct: gene MTNR1B
T1 sequence (P49286 1-362): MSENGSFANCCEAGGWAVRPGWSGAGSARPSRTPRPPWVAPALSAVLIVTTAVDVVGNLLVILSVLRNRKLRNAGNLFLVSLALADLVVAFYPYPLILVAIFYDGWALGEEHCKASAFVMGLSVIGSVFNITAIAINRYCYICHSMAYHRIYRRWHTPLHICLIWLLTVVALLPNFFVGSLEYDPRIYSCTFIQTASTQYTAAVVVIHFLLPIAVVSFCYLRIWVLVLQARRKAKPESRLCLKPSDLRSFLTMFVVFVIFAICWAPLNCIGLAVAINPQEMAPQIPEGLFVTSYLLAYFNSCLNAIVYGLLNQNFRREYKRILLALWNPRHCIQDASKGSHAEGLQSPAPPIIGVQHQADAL

[2] = biological target: T2, melatonin MT1 receptor (Homo sapiens, UniProt P48039); assay: Fluo-8 calcium flux agonist assay in HEK293 cells stably expressing human MT1, single concentration […]; type: cell-based; conditions: read-out: % agonistic rate at 0.5 mM
T2 construct: gene MTNR1A
T2 sequence (P48039 whole entry): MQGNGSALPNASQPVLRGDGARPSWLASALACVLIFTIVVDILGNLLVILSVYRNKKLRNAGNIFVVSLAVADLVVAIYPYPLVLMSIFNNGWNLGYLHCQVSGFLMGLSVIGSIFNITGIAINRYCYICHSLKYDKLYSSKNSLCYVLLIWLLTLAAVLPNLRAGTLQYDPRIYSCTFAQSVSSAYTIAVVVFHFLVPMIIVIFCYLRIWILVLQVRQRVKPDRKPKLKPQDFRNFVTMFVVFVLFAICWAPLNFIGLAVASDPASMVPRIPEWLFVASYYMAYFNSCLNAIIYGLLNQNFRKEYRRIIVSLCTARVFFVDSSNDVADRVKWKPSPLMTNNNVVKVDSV

Oc1ccc(Cc2ccc(O)c(Cc3cc(Cc4ccc(O)cc4)c(O)c(Cc4ccc(O)cc4)c3)c2)cc1 [compound 1, gastropolybenzylol G]
EC50 [1]: 76.2 µM
activation at 500 µM [2]: 55.9 ± 4.84%
